Laboratory results reported in publication PMC9496553, “The Dual-Targeted Peptide Conjugated Probe for Depicting Residual Nasopharyngeal Carcinoma and Guiding Surgery” (Biosensors, 2022).
No end group written: not given here.

Columns and labels:
Type in all cases: in vivo, BALB/c nude mice
[1] = system: 5-8F tumours; assay: Biodistribution and tumour selectivity by whole-body fluorescence imaging, subcutaneous tumour model; settings: for maximum TBR (tumour-to-background ratio): i.v. 12 μM, tumour region vs ipsilateral auricle
Experimental: (§1) Animal experiments were performed in accordance with the approval of Animal Welfare and Ethics Committee of Jinan University (approval number: IACUC-20211210-03). Four-week-old BALB/c nude mice were purchased from the Beijing Vital River Laboratory Animal Technology Co., Ltd. (Beijing, China). Subcutaneous tumour models received a subcutaneous injection of 5-8F (5.0 × 10^6 in 200 μL PBS) in the lower right flank. Experiments were started 10–14 days after tumour implantation, when the tumour diameter was 6–8 mm. Tumour volumes were measured using a Vernier calliper and calculated using the formula for a hemiellipsoid (volume = 0.5236 × length × width^2), as this form best approximated the tumour shape. For orthotopic tumour models, mice were anaesthetised using isoflurane with a precision vaporiser at 1% and injected with 25 μL of 1.1 × 10^5 5-8F-fLuc cells into the nasopharynx using a 28-gauge needle, as previously reported. Mice were fed a specific pathogen-free unit, and animal surgery was performed in a sterile hood. Orthotopic tumours were visualised and tracked by bioluminescence imaging (BLI) using an IVIS® Spectrum In Vivo Imaging System (PerkinElmer, Waltham, MA, USA). Specifically, mice received an intraperitoneal injection of 3 mg/mL luciferin bioluminescent substrate (Perkin Elmer, Waltham, MA, USA) 4 min before imaging.
Mice with subcutaneous 5-8F tumours were randomly divided into three groups (n = 3 per group). The three groups received intravenous (i.v.) injection with 12 μM FY-35 (dual-target dye), 12 μM FL-35 (single-target dye), and equimolar quantities of free dye, respectively. Fluorescence images were acquired pre-, 2 h, 6 h, 10 h, and 24 h post-injection. The mice in each group were euthanised. The heart, lung, liver, pancreas, spleen, kidney, intestine, and tumour tissues were collected for ex vivo imaging. The MFI was analysed to determine organ biodistribution and tumour selectivity in the three groups. The TBR was calculated by drawing regions of interest within the tumour region and ipsilateral auricle of each mouse.

[2] = system: 5-8F-fLuc orthotopic tumours; assay: Fluorescence imaging of orthotopic nasopharyngeal tumours; settings: orthotopic model, n = 5, i.v. 12 μM, imaged up to 48 h post-injection
Experimental: as §1, with “Mice were fed a specific pathogen-free unit, and animal surgery was performed in a sterile hood. Orthotopic tumours were visualised and tracked by bioluminescence imaging (BLI) using an IVIS® Spectrum In Vivo Imaging System (PerkinElmer, Waltham, MA, USA). Specifically, mice received an intraperitoneal injection of 3 mg/mL luciferin bioluminescent substrate (Perkin Elmer, Waltham, MA, USA) 4 min before imaging.” left out
(§2) To identify the minimal size of detectable tumours, subcutaneous tumours of different sizes (1–7 mm; n = 8) were injected with 12 μM FY-35, and imaged at 24 h post-injection to measure MFI in the tumour region. […] Serial sections were cut at a thickness of 10 μm for fluorescence imaging using an inverted microscope (Leica, Wetzlar, Germany), and 4 μm for haematoxylin–eosin (H&E) staining.

[3] = system: 5-8F tumours; assay: Minimal size of detectable subcutaneous tumours by fluorescence imaging; settings: 12 μM, n = 8
Experimental: as §1, with “Mice were fed a specific pathogen-free unit, and animal surgery was performed in a sterile hood. Orthotopic tumours were visualised and tracked by bioluminescence imaging (BLI) using an IVIS® Spectrum In Vivo Imaging System (PerkinElmer, Waltham, MA, USA). Specifically, mice received an intraperitoneal injection of 3 mg/mL luciferin bioluminescent substrate (Perkin Elmer, Waltham, MA, USA) 4 min before imaging.” left out
as §2

Substance: IR800-FL-35: single-targeted peptide FL-35 labelled with IRDye 800CW (FAEKFKEAVKDYFAKFWDGSGSYTYSTPVWVPLWL; also: IRDye 800CW label, site not given here)
- maximum TBR (tumour-to-background ratio) ([1]; subcutaneous 5-8F tumours): 5.99

Substance: IR800-FY-35: bispecific peptide FY-35 labelled with IRDye 800CW (FAEKFKEAVKDYFAKFWDGSGLTVSPWYLTVSPWY; also: IRDye 800CW label, site not given here)
- contrast improved compared to single-targeted tracer (IR800-FL-35) ([1]; at 24 h post-injection): 2.3 fold
- maximum TBR (tumour-to-background ratio) ([1]; subcutaneous 5-8F tumours): 13.83
- maximum TBR, fold higher than that of IR800-FL-35 ([1]; subcutaneous 5-8F tumours): 2.3 fold
- retention of optical contrast in the tumour region [2]: 48 h
- tumour volume at which the MFI increased remarkably ([3]; 24 h post-injection): 32 mm^3
- minimum size of detectable tumours ([3]; imaged 24 h post-injection, subcutaneous tumours 1–7 mm): 3.9 mm
